Data published in ChEMBL document CHEMBL1240351, “Molecular epidemiology of metallo-beta-lactamase-producing Pseudomonas aeruginosa isolates from Norway and Sweden shows import of international clones and local clonal expansion” (2010).
≈ marks a conversion by molar mass, not a printed value.

Experiments:
Format in all cases: functional
[1] = test system: Pseudomonas aeruginosa; assay: Antimicrobial activity against Pseudomonas aeruginosa isolate U9-19005 producing metallo-beta-lactamase VIM2 by Etest
[2] = test system: Pseudomonas aeruginosa; assay: Antimicrobial activity against Pseudomonas aeruginosa isolate PA66 producing metallo-beta-lactamase VIM4 by Etest
[3] = test system: Pseudomonas aeruginosa; assay: Antimicrobial activity against Pseudomonas aeruginosa isolate AK5493 producing metallo-beta-lactamase VIM2 by Etest
[4] = test system: Pseudomonas aeruginosa; assay: Antimicrobial activity against Pseudomonas aeruginosa isolate B4-25753 producing metallo-beta-lactamase VIM2 by Etest
[5] = test system: Pseudomonas aeruginosa; assay: Antimicrobial activity against Pseudomonas aeruginosa isolate K34-73 producing metallo-beta-lactamase VIM4 by Etest
[6] = test system: Pseudomonas aeruginosa; assay: Antimicrobial activity against Pseudomonas aeruginosa isolate K34-7 producing metallo-beta-lactamase VIM2 by Etest
[7] = test system: Pseudomonas aeruginosa; assay: Antimicrobial activity against Pseudomonas aeruginosa isolate BU-20287 producing metallo-beta-lactamase VIM2 by Etest
[8] = test system: Pseudomonas aeruginosa; assay: Antimicrobial activity against Pseudomonas aeruginosa isolate BU-43038 producing metallo-beta-lactamase VIM2 by Etest
[9] = test system: Pseudomonas aeruginosa; assay: Antimicrobial activity against Pseudomonas aeruginosa isolate BU-36178 producing metallo-beta-lactamase VIM2 by Etest
[10] = test system: Pseudomonas aeruginosa; assay: Antimicrobial activity against Pseudomonas aeruginosa isolate BNL-1681 producing metallo-beta-lactamase VIM2 by Etest
[11] = test system: Pseudomonas aeruginosa; assay: Antimicrobial activity against Pseudomonas aeruginosa isolate OS-210 producing metallo-beta-lactamase VIM2 by Etest
[12] = test system: Pseudomonas aeruginosa; assay: Antimicrobial activity against Pseudomonas aeruginosa isolate K44-24 producing metallo-beta-lactamase IMP14 by Etest
[13] = test system: Pseudomonas aeruginosa; assay: Antimicrobial activity against Pseudomonas aeruginosa isolate K45-32 producing metallo-beta-lactamase VIM2 by Etest

Row | SMILES | MIC [1] [µg/mL] | MIC [2] [µg/mL] | MIC [3] [µg/mL] | MIC [4] [µg/mL] | MIC [5] [µg/mL] | MIC [6] [µg/mL] | MIC [7] [µg/mL] | MIC [8] [µg/mL] | MIC [9] [µg/mL] | MIC [10] [µg/mL] | MIC [11] [µg/mL] | MIC [12] [µg/mL] | MIC [13] [µg/mL]
1 | CO/N=C(\C(=O)N[C@@H]1C(=O)N2C(C(=O)[O-])=C(C[N+]3(C)CCCC3)CS[C@H]12)c1csc(N)n1 [CEFEPIME] | 32 (≈ 66.6 µM) | 32 (≈ 66.6 µM) | 32 (≈ 66.6 µM) | 32 (≈ 66.6 µM) | 32 (≈ 66.6 µM) | 32 (≈ 66.6 µM) | 32 (≈ 66.6 µM) | 32 (≈ 66.6 µM) | 32 (≈ 66.6 µM) | 32 (≈ 66.6 µM) | 32 (≈ 66.6 µM) | 32 (≈ 66.6 µM) | 32 (≈ 66.6 µM)
2 | NCC[C@H](O)C(=O)N[C@@H]1C[C@H](N)[C@@H](O[C@H]2O[C@H](CN)[C@@H](O)[C@H](O)[C@H]2O)[C@H](O)[C@H]1O[C@H]1O[C@H](CO)[C@@H](O)[C@H](N)[C@H]1O [AMIKACIN] | 32 (≈ 54.6 µM) | 32 (≈ 54.6 µM) | 32 (≈ 54.6 µM) | 32 (≈ 54.6 µM) | 32 (≈ 54.6 µM) | 32 (≈ 54.6 µM) | 32 (≈ 54.6 µM) | 32 (≈ 54.6 µM) | 32 (≈ 54.6 µM) | 32 (≈ 54.6 µM) | 32 (≈ 54.6 µM) | 32 (≈ 54.6 µM) | 32 (≈ 54.6 µM)
3 | O=C(O)C1=CC[C@@H]2CC(=O)N12 [CARBAPENEM] | > 32 | > 32 | > 32 | > 32 | > 32 | > 32 | > 32 | > 32 | > 32 | > 32 | > 32 | > 32 | > 32
4 | O=C(O)c1cn(C2CC2)c2cc(N3CCNCC3)c(F)cc2c1=O [CIPROFLOXACIN] | 16 (≈ 48.3 µM) | 16 (≈ 48.3 µM) | 16 (≈ 48.3 µM) | 16 (≈ 48.3 µM) | 16 (≈ 48.3 µM) | 16 (≈ 48.3 µM) | 16 (≈ 48.3 µM) | 16 (≈ 48.3 µM) | 16 (≈ 48.3 µM) | 16 (≈ 48.3 µM) | 16 (≈ 48.3 µM) | 16 (≈ 48.3 µM) | 16 (≈ 48.3 µM)
5 | CC(C)(O/N=C(\C(=O)N[C@@H]1C(=O)N2C(C(=O)[O-])=C(C[n+]3ccccc3)CS[C@H]12)c1csc(N)n1)C(=O)O [CEFTAZIDIME] | 64 (≈ 117 µM) | 64 (≈ 117 µM) | 64 (≈ 117 µM) | 64 (≈ 117 µM) | 64 (≈ 117 µM) | 64 (≈ 117 µM) | 64 (≈ 117 µM) | 64 (≈ 117 µM) | 64 (≈ 117 µM) | 64 (≈ 117 µM) | 64 (≈ 117 µM) | 64 (≈ 117 µM) | 64 (≈ 117 µM)
6 | NC[C@H]1O[C@H](O[C@H]2[C@H](O)[C@@H](O[C@H]3O[C@H](CO)[C@@H](O)[C@H](N)[C@H]3O)[C@H](N)C[C@@H]2N)[C@H](N)C[C@@H]1O [TOBRAMYCIN] | 32 (≈ 68.4 µM) | 32 (≈ 68.4 µM) | 32 (≈ 68.4 µM) | 32 (≈ 68.4 µM) | 32 (≈ 68.4 µM) | 32 (≈ 68.4 µM) | 32 (≈ 68.4 µM) | 32 (≈ 68.4 µM) | 32 (≈ 68.4 µM) | 32 (≈ 68.4 µM) | 32 (≈ 68.4 µM) | 32 (≈ 68.4 µM) | 32 (≈ 68.4 µM)
